Where two headings read alike, the source gives them in different places.
Tests used:
[1] = molecular target: c-Raf (Homo sapiens, UniProt P04049); experiment: Luciferase-coupled chemiluminescence kinase assay (ATP consumption), c-Raf; type: biochemical
How it was run: (§1)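 Raf enzyme ([…]) pre-incubated with compound 30 minutes at room temperature in 20 mM Tris pH 7.5, 10 mM MgCl2, 0.03% TX-100, 1 mM DTT, then reacted with ATP for 3 hrs at ambient temperature. Remaining ATP quantified by luciferase-luciferin chemiluminescence, consumption held at 25-60%; IC50 reported.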

[2] = molecular target: B-Raf (Homo sapiens, UniProt P15056); experiment: Luciferase-coupled chemiluminescence kinase assay (ATP consumption), B-Raf; type: biochemical
How it was run: as §1

[3] = read-out: cRaf-1 (inhibition indicated as IC50)
[4] = read-out: bRaf (inhibition indicated as IC50)

B-Raf, sequence (P15056 whole entry): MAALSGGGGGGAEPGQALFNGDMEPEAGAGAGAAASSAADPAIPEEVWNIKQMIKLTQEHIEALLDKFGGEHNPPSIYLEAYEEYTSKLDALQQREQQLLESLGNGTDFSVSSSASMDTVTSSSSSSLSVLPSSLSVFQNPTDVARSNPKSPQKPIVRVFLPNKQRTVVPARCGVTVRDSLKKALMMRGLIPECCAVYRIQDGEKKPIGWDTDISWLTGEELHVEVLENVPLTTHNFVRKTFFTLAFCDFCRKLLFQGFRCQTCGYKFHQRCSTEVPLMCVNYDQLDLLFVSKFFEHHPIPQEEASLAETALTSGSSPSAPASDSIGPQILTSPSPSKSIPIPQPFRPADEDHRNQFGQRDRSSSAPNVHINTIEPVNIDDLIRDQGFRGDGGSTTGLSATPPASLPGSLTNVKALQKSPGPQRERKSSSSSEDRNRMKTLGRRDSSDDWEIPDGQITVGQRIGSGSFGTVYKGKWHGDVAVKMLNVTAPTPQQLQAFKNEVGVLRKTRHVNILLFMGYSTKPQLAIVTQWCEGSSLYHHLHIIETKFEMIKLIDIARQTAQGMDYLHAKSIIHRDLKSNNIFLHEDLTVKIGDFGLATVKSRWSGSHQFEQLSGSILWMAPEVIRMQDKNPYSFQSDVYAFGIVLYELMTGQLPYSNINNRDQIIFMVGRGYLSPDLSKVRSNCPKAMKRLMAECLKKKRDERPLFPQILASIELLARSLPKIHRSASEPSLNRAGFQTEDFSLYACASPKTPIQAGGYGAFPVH
c-Raf, sequence (P04049 whole entry): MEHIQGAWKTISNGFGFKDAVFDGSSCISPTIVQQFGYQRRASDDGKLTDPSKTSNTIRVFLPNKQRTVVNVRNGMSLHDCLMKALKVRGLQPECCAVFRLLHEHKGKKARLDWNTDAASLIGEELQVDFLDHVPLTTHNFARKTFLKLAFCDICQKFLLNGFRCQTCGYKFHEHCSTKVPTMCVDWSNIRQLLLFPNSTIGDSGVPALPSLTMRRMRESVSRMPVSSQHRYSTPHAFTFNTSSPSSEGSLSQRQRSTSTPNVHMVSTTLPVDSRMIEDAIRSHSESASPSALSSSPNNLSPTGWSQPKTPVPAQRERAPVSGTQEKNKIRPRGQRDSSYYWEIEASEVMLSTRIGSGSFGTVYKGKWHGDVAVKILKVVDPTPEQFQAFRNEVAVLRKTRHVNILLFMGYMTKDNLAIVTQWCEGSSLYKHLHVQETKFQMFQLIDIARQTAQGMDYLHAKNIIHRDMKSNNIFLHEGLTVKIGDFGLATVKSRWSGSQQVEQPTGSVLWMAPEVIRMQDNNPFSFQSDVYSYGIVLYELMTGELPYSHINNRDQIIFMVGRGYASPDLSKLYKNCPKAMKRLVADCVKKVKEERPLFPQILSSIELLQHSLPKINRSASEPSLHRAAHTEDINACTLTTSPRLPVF

SMILES	IC50 ([1]; read-out: cRaf-1 IC50) [nM]	IC50 ([2]; read-out: bRaf IC50) [nM]	IC50 [1, 3] [nM]	IC50 [2, 4] [nM]
O=C(Nc1nc2ccc(C3(O)c4ccccc4C(=O)N3c3cccc(Cl)c3F)cc2[nH]1)OCC(F)F (stereo not drawn) [Entry 331, 2,2-difluoroethyl {6-[2-(3-chloro-2-fluorophenyl)-1-hydroxy-3-oxo-2,3-dihydro-1H-isoindol-1-yl]-1H-benzimidazol-2-yl}carbamate]	–	–	< 100	< 100
COC(=O)Nc1nc2cc(C3(O)NC(=O)c4ccccc43)ccc2[nH]1 (stereo not drawn) [Entry 102, methyl [5-(1-hydroxy-3-oxo-2,3-dihydro-1H-isoindol-1-yl)-1H-benzimidazol-2-yl]carbamate]	≥ 10000	≥ 10000	–	–
CCN(CC)C(=O)CCCC(=O)Nc1nc2cc(C3(O)c4ccccc4C(=O)N3c3cccc(Cl)c3F)ccc2[nH]1 (stereo not drawn) [Entry 343, N′-{5-[2-(3-chloro-2-fluorophenyl)-1-hydroxy-3-oxo-2,3-dihydro-1H-isoindol-1-yl]-1H-benzimidazol-2-yl}-N,N-diethylpentanediamide]	–	–	< 100	< 100
C#Cc1cccc(N2C(=O)c3ccccc3C2c2ccc3[nH]c(NC(=O)OC)nc3c2)c1F (stereo not drawn) [Entry 377, methyl {5-[2-(3-ethynyl-2-fluorophenyl)-3-oxo-2,3-dihydro-1H-isoindol-1-yl]-1H-benzimidazol-2-yl}carbamate]	–	–	< 100	< 100
O=C1COc2ccc(C3(O)c4ccccc4C(=O)N3Cc3cccc(C(F)(F)F)c3)cc2N1 (stereo not drawn) [Entry 53, 6-(1-hydroxy-3-oxo-2-{[3-(trifluoromethyl)phenyl]methyl}-2,3-dihydro-1H-isoindol-1-yl)-2H-1,4-benzoxazin-3(4H)-one]	≥ 10000	≥ 10000	–	–
COC(=O)Nc1nc2ccc(C(=O)c3ccccc3C(=O)Nc3cc(Cl)ccc3F)cc2[nH]1 [Entry 402, methyl {6-[(2-{[(5-chloro-2-fluorophenyl)amino]carbonyl}phenyl)carbonyl]-1H-benzimidazol-2-yl}carbamate]	–	–	< 100	< 100
COc1cccc(CN2C(=O)c3ccccc3C2(O)c2ccc3c(c2)NC(=O)CO3)c1OC (stereo not drawn) [Entry 54]	≥ 10000	≥ 10000	–	–
O=C(Nc1nc2ccc(C3(O)c4ccccc4C(=O)N3c3cccc(Cl)c3F)cc2[nH]1)OCCN1CCOCC1 (stereo not drawn) [Entry 308, 2-morpholin-4-ylethyl {6-[2-(3-chloro-2-fluorophenyl)-1-hydroxy-3-oxo-2,3-dihydro-1H-isoindol-1-yl]-1H-benzimidazol-2-yl}carbamate]	–	–	< 100	< 100
COC(=O)Nc1nc2ccc(C(=O)c3ccccc3C(=O)Nc3cccc(Br)c3)cc2[nH]1 [Entry 394, methyl {6-[(2-{[(3-bromophenyl)amino]carbonyl}phenyl)carbonyl]-1H-benzimidazol-2-yl}carbamate]	–	–	< 100	< 100
COC(=O)Nc1nc2ccc(C3CCC(=O)N3c3cccc(Br)c3)cc2[nH]1 (stereo not drawn) [Entry 313, methyl {6-[1-(3-bromophenyl)-5-oxopyrrolidin-2-yl]-1H-benzimidazol-2-yl}carbamate]	–	–	1000 to 10000	1000 to 10000
Cc1ccccc1N1C(=O)c2ccccc2C1(O)c1ccc2c(c1)NC(=O)CO2 (stereo not drawn) [Entry 90, 6-[1-hydroxy-2-(2-methylphenyl)-3-oxo-2,3-dihydro-1H-isoindol-1-yl]-2H-1,4-benzoxazin-3(4H)-one]	1000 to 10000	1000 to 10000	–	–
COC(=O)Nc1nc2cc(C(=O)c3ccccc3C(=O)NOc3ccccc3)ccc2[nH]1 [Entry 272, methyl {5-[(2-{[(phenyloxy)amino]carbonyl}phenyl)carbonyl]-1H-benzimidazol-2-yl}carbamate]	–	–	< 100	< 100
O=C(Nc1nc2ccc(C3(O)c4ccccc4C(=O)N3c3cccc(Cl)c3F)cc2[nH]1)OCC1CCC1 (stereo not drawn) [Entry 344, cyclobutylmethyl {6-[2-(3-chloro-2-fluorophenyl)-1-hydroxy-3-oxo-2,3-dihydro-1H-isoindol-1-yl]-1H-benzimidazol-2-yl}carbamate]	–	–	< 100	< 100
COC(=O)Nc1nc2cc(C3(O)c4ccccc4C(=O)N3C(C)c3cccc(C(F)(F)F)c3)ccc2[nH]1 (stereo not drawn) [Entry 181, methyl [5-(1-hydroxy-3-oxo-2-{1-[3-(trifluoromethyl)phenyl]ethyl}-2,3-dihydro-1H-isoindol-1-yl)-1H-benzimidazol-2-yl]carbamate]	1000 to 10000	1000 to 10000	–	–
O=C(Nc1nc2ccc(C3(O)c4ccccc4C(=O)N3c3cccc(Cl)c3F)cc2[nH]1)OCC1CCCO1 (stereo not drawn) [Entry 337, tetrahydrofuran-2-ylmethyl {6-[2-(3-chloro-2-fluorophenyl)-1-hydroxy-3-oxo-2,3-dihydro-1H-isoindol-1-yl]-1H-benzimidazol-2-yl}carbamate]	–	–	< 100	< 100
CCN(CC)CC#CCOC(=O)Nc1nc2ccc(C3(O)c4ccccc4C(=O)N3c3cccc(Cl)c3F)cc2[nH]1 (stereo not drawn) [Entry 321, 4-(diethylamino)but-2-yn-1-yl {6-[2-(3-chloro-2-fluorophenyl)-1-hydroxy-3-oxo-2,3-dihydro-1H-isoindol-1-yl]-1H-benzimidazol-2-yl}carbamate]	–	–	< 100	< 100
O=C1c2ccccc2C(O)(c2ccc3[nH]c(Nc4ccc(Cl)nn4)nc3c2)N1c1cccc(Cl)c1F (stereo not drawn) [Entry 378, 2-(3-chloro-2-fluorophenyl)-3-{2-[(6-chloropyridazin-3-yl)amino]-1H-benzimidazol-5-yl}-3-hydroxy-2,3-dihydro-1H-isoindol-1-one]	–	–	100 to 1000	100 to 1000
CCCC(=O)Nc1nc2ccc(C3(O)c4ccccc4C(=O)N3c3ccc(F)cc3)cc2[nH]1 (stereo not drawn) [Entry 265, N-{6-[2-(4-fluorophenyl)-1-hydroxy-3-oxo-2,3-dihydro-1H-isoindol-1-yl]-1H-benzimidazol-2-yl}butanamide]	< 100	< 100	–	–
COCCOc1cccc(N2C(=O)c3ccccc3C2(O)c2ccc3[nH]c(NC(=O)OC)nc3c2)c1 (stereo not drawn) [Entry 211, methyl {5-[1-hydroxy-2-(3-{[2-(methyloxy)ethyl]oxy}phenyl)-3-oxo-2,3-dihydro-1H-isoindol-1-yl]-1H-benzimidazol-2-yl}carbamate]	1000 to 10000	1000 to 10000	–	–

The remaining lines, values ahead:

IC50 ([1]; read-out: cRaf-1 IC50) [nM]	IC50 ([2]; read-out: bRaf IC50) [nM]	IC50 [1, 3] [nM]	IC50 [2, 4] [nM]	SMILES
100 to 1000	100 to 1000	–	–	COC(=O)Nc1nc2cc(C3(O)c4ccccc4C(=O)N3CC3CCCO3)ccc2[nH]1 (stereo not drawn) [Entry 216, methyl {5-[1-hydroxy-3-oxo-2-(tetrahydrofuran-2-ylmethyl)-2,3-dihydro-1H-isoindol-1-yl]-1H-benzimidazol-2-yl}carbamate]
1000 to 10000	1000 to 10000	–	–	O=C(CC(O)(C(F)(F)F)C(F)(F)F)Nc1nc2cc(C3(O)c4ccccc4C(=O)N3Cc3ccccc3)ccc2[nH]1 (stereo not drawn) [Entry 218, 4,4,4-trifluoro-3-hydroxy-N-{5-[1-hydroxy-3-oxo-2-(phenylmethyl)-2,3-dihydro-1H-isoindol-1-yl]-1H-benzimidazol-2-yl}-3-(trifluoromethyl)butanamide]
1000 to 10000	1000 to 10000	–	–	Nc1nc2cc(C3(O)c4ccccc4C(=O)N3Cc3ccccc3)ccc2[nH]1 (stereo not drawn) [Entry 101, 3-(2-amino-1H-benzimidazol-5-yl)-3-hydroxy-2-(phenylmethyl)-2,3-dihydro-1H-isoindol-1-one]
100 to 1000	100 to 1000	–	–	COC(=O)Nc1nc2cc(C3(O)c4ccccc4C(=O)N3CC(C)C)ccc2[nH]1 (stereo not drawn) [Entry 162, methyl {5-[1-hydroxy-2-(2-methylpropyl)-3-oxo-2,3-dihydro-1H-isoindol-1-yl]-1H-benzimidazol-2-yl}carbamate]
< 100	< 100	–	–	CNC(=O)Nc1nc2cc(C3(O)c4ccccc4C(=O)N3Cc3ccccc3)ccc2[nH]1 (stereo not drawn) [Entry 171, N-{5-[1-hydroxy-3-oxo-2-(phenylmethyl)-2,3-dihydro-1H-isoindol-1-yl]-1H-benzimidazol-2-yl}-N′-methylurea]
< 100	100 to 1000	–	–	CC(C)(COCc1ccccc1)COC(=O)Nc1nc2cc(C3(O)c4ccccc4C(=O)N3Cc3ccccc3)ccc2[nH]1 (stereo not drawn) [Entry 223, 2,2-dimethyl-3-[(phenylmethyl)oxy]propyl {5-[1-hydroxy-3-oxo-2-(phenylmethyl)-2,3-dihydro-1H-isoindol-1-yl]-1H-benzimidazol-2-yl}carbamate]
100 to 1000	100 to 1000	–	–	O=C(Nc1nc2cc(C3(O)c4ccccc4C(=O)N3Cc3ccccc3)ccc2[nH]1)OC1CCCCC1 (stereo not drawn) [Entry 185, cyclohexyl {5-[1-hydroxy-3-oxo-2-(phenylmethyl)-2,3-dihydro-1H-isoindol-1-yl]-1H-benzimidazol-2-yl}carbamate]
< 100	< 100	–	–	COC(=O)Nc1nc2cc(C3(O)c4ccccc4C(=O)N3c3cccc(Br)c3)ccc2[nH]1 (stereo not drawn) [Entry 134, methyl {5-[2-(3-bromophenyl)-1-hydroxy-3-oxo-2,3-dihydro-1H-isoindol-1-yl]-1H-benzimidazol-2-yl}carbamate]
–	–	< 100	< 100	O=C(CCCN1CCCCC1)Nc1nc2cc(C3(O)c4ccccc4C(=O)N3c3cccc(Oc4ccccc4)c3)ccc2[nH]1 (stereo not drawn) [Entry 319, N-(5-{1-hydroxy-3-oxo-2-[3-(phenyloxy)phenyl]-2,3-dihydro-1H-isoindol-1-yl}-1H-benzimidazol-2-yl)-4-piperidin-1-ylbutanamide]
–	–	100 to 1000	100 to 1000	COC(=O)Nc1nc2cc(C3(O)c4ccccc4C(=O)N3c3ccccc3Oc3ccccc3)ccc2[nH]1 (stereo not drawn) [Entry 342, methyl (5-{1-hydroxy-3-oxo-2-[2-(phenyloxy)phenyl]-2,3-dihydro-1H-isoindol-1-yl}-1H-benzimidazol-2-yl)carbamate]
< 100	< 100	–	–	COC(=O)Nc1nc2cc(C3(O)c4ccccc4C(=O)N3CC3CCC3)ccc2[nH]1 (stereo not drawn) [Entry 207, methyl {5-[2-(cyclobutylmethyl)-1-hydroxy-3-oxo-2,3-dihydro-1H-isoindol-1-yl]-1H-benzimidazol-2-yl}carbamate]

Reference: patent publication US7846959B2, “Raf modulators and methods of use” (Exelixis, Inc., priority 2004, dated 2010)
